Assays:
Experiment in all cases: relative viability (nuclei count vs DMSO), 5 days (fraction); higher = more cells survive
[1] = system: NCI-H2085
Procedure, shortened: (§1)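 The day after seeding in 1536-well plates, lung cancer cell lines were treated by pin tool with a single drug, or with a fixed anchor-drug dose together with five library-drug doses (not always all listed) in √10 steps. After 5 days, a combined fix-and-stain solution (final 0.05% Triton X-100, 1% formaldehyde, 1 ug/ml Hoechst) was added. Nuclei counted on 4× images gave relative viability as treated counts over vehicle counts, reported as the median of duplicate plates.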

[2] = system: NCI-H322M
Procedure, shortened: as §1

[3] = system: CAL-12T
Procedure, shortened: as §1

[4] = system: LK-2
Procedure, shortened: as §1

[5] = system: LCLC-103H
Procedure, shortened: as §1

[6] = system: NCI-H2228
Procedure, shortened: as §1

[7] = system: NCI-H1437
Procedure, shortened: as §1

[8] = system: COR-L 105
Procedure, shortened: as §1

[9] = system: LU99A
Procedure, shortened: as §1

[10] = system: NCI-H23
Procedure, shortened: as §1

[11] = system: BEN
Procedure, shortened: as §1

[12] = system: UMC-11
Procedure, shortened: as §1

[13] = system: NCI-H1651
Procedure, shortened: as §1

[14] = system: NCI-H2405
Procedure, shortened: as §1

[15] = system: HCC-15
Procedure, shortened: as §1

[16] = system: HCC-827
Procedure, shortened: as §1

[17] = system: 201T
Procedure, shortened: as §1

[18] = system: HARA
Procedure, shortened: as §1

[19] = system: LC-2-ad
Procedure, shortened: as §1

[20] = system: NCI-H1792
Procedure, shortened: as §1

[21] = system: LXF-289
Procedure, shortened: as §1

[22] = system: RERF-LC-KJ
Procedure, shortened: as §1

[23] = system: H3255
Procedure, shortened: as §1

## Cc1cnc(-c2cnc(NCCNc3ccc(C#N)cn3)nc2-c2ccc(Cl)cc2Cl)[nH]1 + CC(=O)c1c(C)c2cnc(Nc3ccc(N4CCNCC4)cn3)nc2n(C2CCCC2)c1=O [Palbociclib] (partner 0.5 µM)
[1]; first compound 0.08 µM
  relative viability: 0.469
[1]; first compound 0.253 µM
  relative viability: 0.509
[1]; first compound 0.8 µM
  relative viability: 0.504
[1]; first compound 2.53 µM
  relative viability: 0.561
[2]; first compound 0.08 µM
  relative viability: 0.467
[2]; first compound 0.253 µM
  relative viability: 0.553
[2]; first compound 0.8 µM
  relative viability: 0.477
[2]; first compound 2.53 µM
  relative viability: 0.588
[3]; first compound 0.08 µM
  relative viability: 0.43
[3]; first compound 0.253 µM
  relative viability: 0.413
[3]; first compound 0.8 µM
  relative viability: 0.37
[3]; first compound 2.53 µM
  relative viability: 0.286
[4]; first compound 0.08 µM
  relative viability: 0.754
[4]; first compound 0.253 µM
  relative viability: 0.645
[4]; first compound 2.53 µM
  relative viability: 0.583
[5]; first compound 0.08 µM
  relative viability: 0.516
[5]; first compound 0.253 µM
  relative viability: 0.475
[5]; first compound 0.8 µM
  relative viability: 0.426
[5]; first compound 2.53 µM
  relative viability: 0.507
[6]; first compound 0.08 µM
  relative viability: 0.83
[6]; first compound 0.253 µM
  relative viability: 0.716
[6]; first compound 0.8 µM
  relative viability: 0.734
[6]; first compound 2.53 µM
  relative viability: 0.648
[7]; first compound 0.08 µM
  relative viability: 0.355
[7]; first compound 0.253 µM
  relative viability: 0.303
[7]; first compound 0.8 µM
  relative viability: 0.281
[7]; first compound 2.53 µM
  relative viability: 0.285
[8]; first compound 0.08 µM
  relative viability: 0.397
[8]; first compound 0.253 µM
  relative viability: 0.401
[8]; first compound 0.8 µM
  relative viability: 0.382
[8]; first compound 2.53 µM
  relative viability: 0.404
[9]; first compound 0.08 µM
  relative viability: 0.375
[9]; first compound 0.253 µM
  relative viability: 0.388
[9]; first compound 0.8 µM
  relative viability: 0.442
[9]; first compound 2.53 µM
  relative viability: 0.389
[10]; first compound 0.08 µM
  relative viability: 0.378
[10]; first compound 0.253 µM
  relative viability: 0.49
[10]; first compound 0.8 µM
  relative viability: 0.515
[10]; first compound 2.53 µM
  relative viability: 0.616
[11]; first compound 0.08 µM
  relative viability: 0.495
[11]; first compound 0.253 µM
  relative viability: 0.506
[11]; first compound 0.8 µM
  relative viability: 0.687
[11]; first compound 2.53 µM
  relative viability: 0.545
[12]; first compound 0.08 µM
  relative viability: 0.354
[12]; first compound 0.253 µM
  relative viability: 0.346
[12]; first compound 0.8 µM
  relative viability: 0.364
[12]; first compound 2.53 µM
  relative viability: 0.401
[13]; first compound 0.08 µM
  relative viability: 0.58
[13]; first compound 0.253 µM
  relative viability: 0.468
[13]; first compound 0.8 µM
  relative viability: 0.504
[13]; first compound 2.53 µM
  relative viability: 0.549
[14]; first compound 0.08 µM
  relative viability: 0.571
[14]; first compound 0.253 µM
  relative viability: 0.452
[14]; first compound 0.8 µM
  relative viability: 0.57
[14]; first compound 2.53 µM
  relative viability: 0.495
[15]; first compound 0.08 µM
  relative viability: 0.689
[15]; first compound 0.253 µM
  relative viability: 0.543
[15]; first compound 0.8 µM
  relative viability: 0.69
[15]; first compound 2.53 µM
  relative viability: 0.724
[16]; first compound 0.08 µM
  relative viability: 0.48
[16]; first compound 0.253 µM
  relative viability: 0.371
[16]; first compound 0.8 µM
  relative viability: 0.484
[16]; first compound 2.53 µM
  relative viability: 0.387
[17]; first compound 0.08 µM
  relative viability: 0.384
[17]; first compound 0.8 µM
  relative viability: 0.362
[17]; first compound 2.53 µM
  relative viability: 0.38
[18]; first compound 0.08 µM
  relative viability: 0.296
[18]; first compound 0.253 µM
  relative viability: 0.288
[18]; first compound 0.8 µM
  relative viability: 0.262
[18]; first compound 2.53 µM
  relative viability: 0.241
[19]; first compound 0.08 µM
  relative viability: 0.473
[19]; first compound 0.8 µM
  relative viability: 0.485
[19]; first compound 2.53 µM
  relative viability: 0.436
[20]; first compound 0.08 µM
  relative viability: 0.677
[20]; first compound 0.253 µM
  relative viability: 0.551
[20]; first compound 0.8 µM
  relative viability: 0.646
[20]; first compound 2.53 µM
  relative viability: 0.625
[21]; first compound 0.08 µM
  relative viability: 0.66
[21]; first compound 0.253 µM
  relative viability: 0.565
[21]; first compound 0.8 µM
  relative viability: 0.571
[21]; first compound 2.53 µM
  relative viability: 0.682
[22]; first compound 0.08 µM
  relative viability: 1.18
[22]; first compound 0.253 µM
  relative viability: 0.905
[22]; first compound 0.8 µM
  relative viability: 1.01
[22]; first compound 2.53 µM
  relative viability: 0.956
[23]; first compound 0.08 µM
  relative viability: 0.299
[23]; first compound 0.253 µM
  relative viability: 0.34
[23]; first compound 0.8 µM
  relative viability: 0.317
[23]; first compound 2.53 µM
  relative viability: 0.306

## Cc1cnc(-c2cnc(NCCNc3ccc(C#N)cn3)nc2-c2ccc(Cl)cc2Cl)[nH]1 + CC(C)C[C@H](NC(=O)[C@H](Cc1ccccc1)NC(=O)c1cnccn1)B(O)O [Bortezomib] (partner 0.002 µM)
[1]; first compound 0.08 µM
  relative viability: 1.12
[1]; first compound 0.253 µM
  relative viability: 1.17
[1]; first compound 0.8 µM
  relative viability: 0.957
[1]; first compound 2.53 µM
  relative viability: 1.02
[2]; first compound 0.08 µM
  relative viability: 1.13
[2]; first compound 0.253 µM
  relative viability: 1.1
[2]; first compound 0.8 µM
  relative viability: 1.22
[2]; first compound 2.53 µM
  relative viability: 1.31
[3]; first compound 0.253 µM
  relative viability: 0.902
[3]; first compound 2.53 µM
  relative viability: 0.975
[5]; first compound 0.08 µM
  relative viability: 1.08
[5]; first compound 0.253 µM
  relative viability: 1.04
[5]; first compound 0.8 µM
  relative viability: 0.983
[5]; first compound 2.53 µM
  relative viability: 0.912
[6]; first compound 0.08 µM
  relative viability: 1.04
[6]; first compound 0.253 µM
  relative viability: 0.879
[6]; first compound 0.8 µM
  relative viability: 0.986
[6]; first compound 2.53 µM
  relative viability: 0.912
[7]; first compound 0.08 µM
  relative viability: 0.536
[7]; first compound 0.253 µM
  relative viability: 0.475
[7]; first compound 0.8 µM
  relative viability: 0.451
[7]; first compound 2.53 µM
  relative viability: 0.472
[8]; first compound 0.08 µM
  relative viability: 0.898
[8]; first compound 0.253 µM
  relative viability: 0.754
[8]; first compound 0.8 µM
  relative viability: 0.62
[8]; first compound 2.53 µM
  relative viability: 0.445
[9]; first compound 0.08 µM
  relative viability: 1.27
[9]; first compound 0.253 µM
  relative viability: 1.12
[9]; first compound 0.8 µM
  relative viability: 1.29
[9]; first compound 2.53 µM
  relative viability: 1.18
[10]; first compound 0.08 µM
  relative viability: 1.13
[10]; first compound 0.253 µM
  relative viability: 0.846
[10]; first compound 0.8 µM
  relative viability: 1.16
[10]; first compound 2.53 µM
  relative viability: 1.13
[11]; first compound 0.08 µM
  relative viability: 0.623
[11]; first compound 0.253 µM
  relative viability: 0.786
[11]; first compound 0.8 µM
  relative viability: 0.725
[11]; first compound 2.53 µM
  relative viability: 0.797
[12]; first compound 0.08 µM
  relative viability: 0.759
[12]; first compound 0.253 µM
  relative viability: 0.595
[12]; first compound 0.8 µM
  relative viability: 0.516
[12]; first compound 2.53 µM
  relative viability: 0.659
[13]; first compound 0.08 µM
  relative viability: 0.965
[13]; first compound 0.253 µM
  relative viability: 0.883
[13]; first compound 0.8 µM
  relative viability: 0.937
[13]; first compound 2.53 µM
  relative viability: 0.92
[14]; first compound 0.08 µM
  relative viability: 0.68
[14]; first compound 0.253 µM
  relative viability: 1.02
[14]; first compound 0.8 µM
  relative viability: 0.967
[14]; first compound 2.53 µM
  relative viability: 0.98
[15]; first compound 0.08 µM
  relative viability: 1.01
[15]; first compound 0.253 µM
  relative viability: 0.575
[15]; first compound 0.8 µM
  relative viability: 1
[15]; first compound 2.53 µM
  relative viability: 0.969
[16]; first compound 0.08 µM
  relative viability: 1.01
[16]; first compound 0.8 µM
  relative viability: 0.877
[16]; first compound 2.53 µM
  relative viability: 1.07
[17]; first compound 0.08 µM
  relative viability: 1.12
[17]; first compound 0.253 µM
  relative viability: 0.973
[17]; first compound 0.8 µM
  relative viability: 1.14
[17]; first compound 2.53 µM
  relative viability: 1.1
[18]; first compound 0.08 µM
  relative viability: 1.05
[18]; first compound 0.253 µM
  relative viability: 1.09
[18]; first compound 0.8 µM
  relative viability: 1.08
[18]; first compound 2.53 µM
  relative viability: 1.08
[19]; first compound 0.08 µM
  relative viability: 1.19
[19]; first compound 0.8 µM
  relative viability: 1.04
[19]; first compound 2.53 µM
  relative viability: 0.855
[20]; first compound 0.08 µM
  relative viability: 0.89
[20]; first compound 0.253 µM
  relative viability: 0.657
[20]; first compound 0.8 µM
  relative viability: 0.876
[20]; first compound 2.53 µM
  relative viability: 0.915
[21]; first compound 0.08 µM
  relative viability: 1.04
[21]; first compound 0.253 µM
  relative viability: 0.946
[21]; first compound 0.8 µM
  relative viability: 1.09
[21]; first compound 2.53 µM
  relative viability: 1.11
[22]; first compound 0.08 µM
  relative viability: 1.27
[22]; first compound 0.253 µM
  relative viability: 1
[22]; first compound 0.8 µM
  relative viability: 0.804
[22]; first compound 2.53 µM
  relative viability: 0.931
[23]; first compound 0.08 µM
  relative viability: 0.91
[23]; first compound 0.253 µM
  relative viability: 0.563
[23]; first compound 0.8 µM
  relative viability: 0.95
[23]; first compound 2.53 µM
  relative viability: 0.656
